The species named for data set [1] is Mus musculus. Nature of the data set: Compound was tested for life span loss of mean body weight. It is filed as functional.
Data set [2] concerns the target T1, Dihydrofolate reductase (Mus musculus) (UniProt P00375).
T1 sequence (whole entry): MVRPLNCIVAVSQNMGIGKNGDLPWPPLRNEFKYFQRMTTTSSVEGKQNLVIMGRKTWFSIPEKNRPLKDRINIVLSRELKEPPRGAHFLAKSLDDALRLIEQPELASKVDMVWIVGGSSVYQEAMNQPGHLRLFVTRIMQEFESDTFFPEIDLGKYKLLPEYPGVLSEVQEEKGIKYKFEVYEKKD
The data set can be described thus: Inhibitory tested against Dihydrofolate reductase enzyme from L1210 mouse leukemia cells using [3H]methotrexate as a radioligand. It counts as cell-based.

Data set [3] deals with Mus musculus. Nature of the data set: In vivo life span increase in mice after 120 mg/kg (mg/kg)/day (q3d X 3) starting 24 hr of ip administration on; No activity. The conditions noted are these: at 120 mg/kg. Details: dose 120 mg/kg. It is filed as functional, organism-based.
Data set [4] has as its target Dihydrofolate reductase (Lactobacillus casei) (UniProt P00381). The data set can be described thus: Inhibitory activity tested against dihydrofolate reductase from Lactobacillus casei. As to conditions: Lacticaseibacillus casei.
The subject of data set [5] is Mus musculus. The data set can be described thus: Compound was tested for life span of weight loss in mice at 1 mg/kg/day. It counts as functional.
The test system of data set [6] is Mus musculus. The data set can be described thus: In vivo life span increase in mice after 30 mg/kg (mg/kg)/day (q3d X 3) starting 24 hr of ip administration on;No activity. The conditions noted are these: at 30 mg/kg. Set-up: dose 30 mg/kg. It counts as functional, organism-based.
Data set [7] relates to Mus musculus. The data set can be described thus: In vivo life span increase in mice after 240 mg/kg (mg/kg)/day (q3d X 3) starting 24 hr of ip administration on. It is filed as functional. As to conditions: route intraperitoneal.
The species named for data set [8] is Mus musculus. Nature of the data set: Compound was tested for life span of weight gain. It counts as functional.
In data set [9] the test system is Mus musculus. Nature of the data set: In vivo life span increase in mice after 60 mg/kg (mg/kg)/day (q3d X 3) starting 24 hr of ip administration on; No activity. It counts as functional, organism-based. As to conditions: at 60 mg/kg. Set-up: dose 60 mg/kg.
Data set [10] is filed under the species Mus musculus. Nature of the data set: Growth inhibitory activity against L1210 mouse leukemia cells. It is filed as functional.
Data set [11] relates to Mus musculus. The data set can be described thus: Compound was tested for life span of weight loss in mice at 4 mg/kg/day. It is filed as functional.
Data set [12] in a line: pKa value was determined. It is filed as physicochemical.

Calls of active or inactive are those of the source. The rule behind the calls is not given here.

As usually defined, the ILS is how much longer treated animals lived than controls. One may read the pKa as the pH at which an ionisable group is half protonated. Read a low pKa as a stronger acid or weaker base.

Sequence of Dihydrofolate reductase (Lactobacillus casei) (P00381 whole entry): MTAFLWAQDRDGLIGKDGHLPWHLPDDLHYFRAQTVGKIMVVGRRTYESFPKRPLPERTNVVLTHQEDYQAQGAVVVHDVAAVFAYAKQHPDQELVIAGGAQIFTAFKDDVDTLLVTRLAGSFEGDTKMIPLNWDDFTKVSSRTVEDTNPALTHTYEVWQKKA

For `Nc1nc(N)c2nc(CNc3ccc(CNC(CO)CCC(=O)O)cc3)cnc2n1` (stereo not given), the Loss in the data set filed under Mus musculus [1] is given as 5%. Besides, the ID50 worked out at 24 nM in data set [2] and 470 nM in data set [4]. For the same molecule, the Increase entry in the data set on Mus musculus [3], in the data set with Mus musculus [6] and in the data set with Mus musculus [9] was “inactive” in each case. The molecule also gave an ILS at 1 mg/kg/day in the data set with Mus musculus [5] of 27%. The Increase with Mus musculus [7] came out at 22%. The same molecule displayed a Weight gain in the data set filed under Mus musculus [8] of 13%. The Activity in the data set listed under Mus musculus [10] was 1 µM. For the same molecule, in the data set with Mus musculus [11], the ILS at 4 mg/kg/day stood at 45%.
For the molecule `Nc1nc(N)c2nc(CNc3ccc(C(=O)N[C@@H](CCC(=O)O)C(=O)O)cc3)cnc2n1`, the values for the ID50 in data set [2] and in [4] were 2.2 nM and 27 nM, respectively.
Turning to `CC(=O)NCC(=O)O` [ACETURIC ACID], the pKa in [12] was determined as 3.6.
Consider `N[C@@H](CCC(=O)O)C(=O)O` [GLUTAMIC ACID], for which the pKa in data set [12] came out at 3.2.

The values above are taken from ChEMBL document CHEMBL1121987 (J Med Chem, 1982).
